Assay: xn = mol fraction of the nth substance listed
Settings: 101 kPa, Liquid; for viscosity: Concentric cylinders viscometry; for speed of sound: Single path-length method; for mass density: Vibrating tube method

CCCCCCCCCCCCCCCC [hexadecane] + CCCO
Settings	mass density, 333.15 K [kg/m3]	mass density, 338.15 K [kg/m3]	mass density, 343.15 K [kg/m3]	speed of sound, 333.15 K [m/s]	speed of sound, 338.15 K [m/s]	speed of sound, 343.15 K [m/s]	viscosity, 333.15 K [mPa·s]	viscosity, 338.15 K [mPa·s]	viscosity, 343.15 K [mPa·s]
x2 = 0	745.74	742.31	738.88	1211.8	1194.4	1177.5	–	1.421	1.316
x2 = 0.1	745.09	741.53	737.98	1202.2	1184.6	1167.2	–	1.329	1.23
x2 = 0.2	745.2	741.55	737.89	1194.5	1176.7	1159.1	–	1.266	1.168
x2 = 0.3	745.61	741.89	738.15	1186.7	1168.8	1151.1	–	1.226	1.131
x2 = 0.4	746.31	742.52	738.69	1178.5	1160.5	1142.7	–	1.179	1.085
x2 = 0.5	747.38	743.5	739.59	1169.2	1151.2	1133.3	–	1.134	1.042
x2 = 0.6	748.93	744.97	740.96	1158.7	1140.7	1122.7	–	1.087	0.9894
x2 = 0.7	751.24	747.19	743.08	1146.8	1128.8	1110.9	1.138	1.039	0.9461
x2 = 0.8	754.7	750.55	746.33	1131.5	1113.7	1095.9	1.079	0.9835	0.8985
x2 = 0.9	760.17	755.91	751.58	1112.1	1094.6	1077.1	1.004	0.9119	0.8305

Reference: the NIST ThermoML archive (doi:10.1016/j.fluid.2018.05.028)
